Assay results as given in patent US20100216827A1 (Metabolex, Inc., priority 2008, published 2010).
pEC50: −log10 of the molar value. Where two headings read alike, the source gives them in different places.

Biological target: T1, human GPR120 (Homo sapiens, UniProt Q5NUL3)
T1 construct: host or cells: HEK293 cells coexpressing Gqi5
T1 sequence (Q5NUL3 1-361): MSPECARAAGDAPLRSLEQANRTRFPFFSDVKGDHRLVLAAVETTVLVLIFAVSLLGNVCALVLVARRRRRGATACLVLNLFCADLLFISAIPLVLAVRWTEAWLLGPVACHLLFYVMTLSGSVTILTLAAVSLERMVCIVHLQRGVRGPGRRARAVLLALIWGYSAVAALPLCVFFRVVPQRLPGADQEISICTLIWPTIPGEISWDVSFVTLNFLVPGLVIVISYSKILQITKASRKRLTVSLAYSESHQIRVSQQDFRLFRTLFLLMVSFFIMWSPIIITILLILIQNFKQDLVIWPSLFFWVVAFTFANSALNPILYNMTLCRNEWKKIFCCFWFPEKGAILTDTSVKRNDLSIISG
Assay: Intracellular Ca2+ (FLIPR Calcium 4, Flexstation) assay in human GPR120 stable HEK293 cell line coexpressing Gqi5
Type: cell-based
Conditions: for % Activity at 5 μM: 5 μM compound compared to the maximal activity of GW9508 at 6.7 μM (100%); for pEC50: human GPR120 stably expressing cells, 8 concentrations 0.00001 to 20 μM
How it was run: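 Calcium 4 dye-loaded HEK293 cells expressing N-terminally Flag-tagged human GPR120 with Gqi5 (HBSS/20 mM HEPES, pH 7.4; 50 min, 37 °C). Fluorescence (485/525 nm) read for 90 s after addition of compound at 8 concentrations, 0.00001–20 μM; EC50 from Max−Min change. % activity at 5 μM versus maximal GW9508 response (6.7 μM).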

[1] = read-out: EC50 between >1 μM and ≦10 μM

Structure (SMILES): Cc1cc(COc2c(F)cc(CC(C)C(=O)O)cc2F)n(-c2ccccc2)n1 (centres unmarked) [Example 122, 3-(3,5-difluoro-4-((3-methyl-1-phenyl-1H-pyrazol-5-yl)methoxy)phenyl)-2-methylpropanoic acid]
- % Activity at 5 μM: 91%
- pEC50 (read-out: EC50 ≦ 1 μM): ≥ 6.00

Structure (SMILES): Cc1ccc(-n2nc(C)cc2COc2c(F)cc(CC(C)C(=O)O)cc2F)cc1 (centres unmarked) [Example 84, 3-(3,5-difluoro-4-((3-methyl-1-p-tolyl-1H-pyrazol-5-yl)methoxy)phenyl)-2-methylpropanoic acid]
- % Activity at 5 μM: 106%
- pEC50 (read-out: EC50 ≦ 1 μM): ≥ 6.00

Structure (SMILES): COc1ccc(-c2noc(C)c2COc2c(F)cc(CCC(=O)O)cc2F)cc1 [Example 21, 3-(3,5-difluoro-4-((3-(4-methoxyphenyl)-5-methylisoxazol-4-yl)methoxy)phenyl)propanoic acid]
- % Activity at 5 μM: 97%
- pEC50 (read-out: EC50 ≦ 1 μM): ≥ 6.00

Structure (SMILES): CC(Cc1cc(F)c(OCc2cc(C(F)(F)F)nn2-c2ccc(Cl)cc2)c(F)c1)C(=O)O (centres unmarked) [Example 117, 3-(4-((1-(4-chlorophenyl)-3-(trifluoromethyl)-1H-pyrazol-5-yl)methoxy)-3,5-difluorophenyl)-2-methylpropanoic acid]
- % Activity at 5 μM: 105%
- pEC50 (read-out: EC50 ≦ 1 μM): ≥ 6.00

Structure (SMILES): CCc1ccc(-n2nc(C(F)(F)F)cc2COc2c(F)cc(CC(C)C(=O)O)cc2F)cc1 (centres unmarked) [Example 96, 3-(4-((1-(4-ethylphenyl)-3-(trifluoromethyl)-1H-pyrazol-5-yl)methoxy)-3,5-difluorophenyl)-2-methylpropanoic acid]
- % Activity at 5 μM: 97%
- pEC50 (read-out: EC50 ≦ 1 μM): ≥ 6.00

Structure (SMILES): Cc1cc(COc2cc3c(cc2F)C(CC(=O)O)CC3)n(-c2ccc(Cl)cc2)n1 (centres unmarked) [Example 106, 2-(5-((1-(4-Chlorophenyl)-3-methyl-1H-pyrazol-5-yl)methoxy)-6-fluoro-2,3-dihydro-1H-inden-1-yl)acetic acid]
- % Activity at 5 μM: 88%
- pEC50 (read-out: EC50 ≦ 1 μM): ≥ 6.00

Structure (SMILES): Cc1cc(COc2ccc(CCC(C)C(=O)O)cc2)n(-c2ccc(Cl)cc2)n1 (centres unmarked) [Example 131, 4-(4-((1-(4-chlorophenyl)-3-methyl-1H-pyrazol-5-yl)methoxy)phenyl)-2-methylbutanoic acid]
- % Activity at 5 μM: 68%
- pEC50 [1]: 5.00 to 6.00

Structure (SMILES): COc1cc(CCC(=O)O)ccc1OCc1cc(C)nn1-c1ccc(Cl)cc1 [Example 133, 3-(4-((1-(4-chlorophenyl)-3-methyl-1H-pyrazol-5-yl)methoxy)-3-methoxyphenyl)propanoic acid]
- % Activity at 5 μM: 107%
- pEC50 [1]: 5.00 to 6.00

Structure (SMILES): Cc1cc(COc2c(F)cc(CC(C)C(=O)O)cc2F)n(-c2ccc(C(N)=O)cc2)n1 (centres unmarked) [Example 79, 3-(4-((1-(4-carbamoylphenyl)-3-methyl-1H-pyrazol-5-yl)methoxy)-3,5-difluorophenyl)-2-methylpropanoic acid]
- % Activity at 5 μM: 9%
- pEC50 (read-out: EC50 > 10 μM): < 5.00

Structure (SMILES): Cc1cnn(-c2ccc(F)cc2)c1COc1c(F)cc(CCC(=O)O)cc1F [Example 51, 3-(3,5-difluoro-4-((1-(4-fluorophenyl)-4-methyl-1H-pyrazol-5-yl)methoxy)phenyl)propanoic acid]
- % Activity at 5 μM: 81%
- pEC50 (read-out: EC50 ≦ 1 μM): ≥ 6.00

Structure (SMILES): Cc1cc(COc2c(F)cc(CC(C)C(=O)O)cc2F)c(-c2ccccc2)o1 (centres unmarked) [Example 116, 3-(3,5-Difluoro-4-((5-methyl-2-phenylfuran-3-yl)methoxy)phenyl)-2-methylpropanoic acid]
- % Activity at 5 μM: 115%
- pEC50 (read-out: EC50 ≦ 1 μM): ≥ 6.00

Structure (SMILES): CCc1ccc(-n2nc(C)cc2COc2ccc3c(c2)CCC3CC(=O)O)cc1 (centres unmarked) [Example 121, 2-(5-((1-(4-ethylphenyl)-3-methyl-1H-pyrazol-5-yl)methoxy)-2,3-dihydro-1H-inden-1-yl)acetic acid]
- % Activity at 5 μM: 94%
- pEC50 (read-out: EC50 ≦ 1 μM): ≥ 6.00

Structure (SMILES): CCc1ccc(-n2nc(C)cc2COc2ccc(CCCC(=O)O)cc2)cc1 [Example 129, 4-(4-((1-(4-ethylphenyl)-3-methyl-1H-pyrazol-5-yl)methoxy)phenyl)butanoic acid]
- % Activity at 5 μM: 99%
- pEC50 (read-out: EC50 ≦ 1 μM): ≥ 6.00

Structure (SMILES): Cc1onc(-c2ccccc2)c1COc1c(F)cc(CCC(=O)O)cc1F [Example 14, 3-(3,5-difluoro-4-((5-methyl-3-phenylisoxazol-4-yl)methoxy)phenyl)propanoic acid]
- % Activity at 5 μM: 66%
- pEC50 (read-out: EC50 ≦ 1 μM): ≥ 6.00

Structure (SMILES): CCOC(Cc1cc(F)c(OCc2cc(C)nn2-c2ccc(Cl)cc2)c(F)c1)C(=O)O (centres unmarked) [Example 102, 3-(4-((1-(4-chlorophenyl)-3-methyl-1H-pyrazol-5-yl)methoxy)-3,5-difluorophenyl)-2-ethoxypropanoic acid]
- % Activity at 5 μM: 61%
- pEC50 [1]: 5.00 to 6.00

Structure (SMILES): Cc1cc(COc2c(F)cc(CC(C)C(=O)O)cc2F)n(-c2ccc(C)c(Cl)c2)n1 (centres unmarked) [Example 88, 3-(4-((1-(3-chloro-4-methylphenyl)-3-methyl-1H-pyrazol-5-yl)methoxy)-3,5-difluorophenyl)-2-methylpropanoic acid]
- % Activity at 5 μM: 107%
- pEC50 (read-out: EC50 ≦ 1 μM): ≥ 6.00

Structure (SMILES): O=C(O)CC1CCc2cc(OCc3cc(C(F)(F)F)nn3-c3ccc(Cl)cc3)ccc21 (centres unmarked) [Example 119, 2-(5-((1-(4-chlorophenyl)-3-(trifluoromethyl)-1H-pyrazol-5-yl)methoxy)-2,3-dihydro-1H-inden-1-yl)acetic acid]
- % Activity at 5 μM: 92%

Structure (SMILES): CCc1ccc(-n2nc(C)cc2COc2c(F)cc(C[C@@H](C)C(=O)O)cc2F)cc1 [Example 98, (R)-3-(4-((1-(4-ethylphenyl)-3-methyl-1H-pyrazol-5-yl)methoxy)-3,5-difluorophenyl)-2-methylpropanoic acid]
- % Activity at 5 μM: 104%
- pEC50 (read-out: EC50 ≦ 1 μM): ≥ 6.00

Structure (SMILES): O=C(O)CCc1cc(F)c(OCc2ncoc2-c2ccccc2)c(F)c1 [Example 10, 3-(3,5-difluoro-4-((5-phenyloxazol-4-yl)methoxy)phenyl)propanoic acid]
- % Activity at 5 μM: 60%
- pEC50 (read-out: EC50 ≦ 1 μM): ≥ 6.00

Structure (SMILES): O=C(O)CCc1cc(F)c(OCc2ncsc2-c2ccccc2)c(F)c1 [Example 28, 3-(3,5-difluoro-4-((5-phenylthiazol-4-yl)methoxy)phenyl)propanoic acid]
- % Activity at 5 μM: 87%
- pEC50 (read-out: EC50 ≦ 1 μM): ≥ 6.00

Structure (SMILES): Cc1onc(-c2ccc(F)cc2)c1COc1c(F)cc(CCC(=O)O)cc1F [Example 18, 3-(3,5-difluoro-4-((3-(4-fluorophenyl)-5-methylisoxazol-4-yl)methoxy)phenyl)propanoic acid]
- % Activity at 5 μM: 77%
- pEC50 (read-out: EC50 ≦ 1 μM): ≥ 6.00

Structure (SMILES): CCc1ccc(-n2nc(C)cc2COc2ccc(CCC(C)C(=O)O)cc2)cc1 (centres unmarked) [Example 132, 4-(4-((1-(4-ethylphenyl)-3-methyl-1H-pyrazol-5-yl)methoxy)phenyl)-2-methylbutanoic acid]
- % Activity at 5 μM: 85%
- pEC50 [1]: 5.00 to 6.00

Structure (SMILES): CC(Cc1cc(F)c(OCc2c(C(F)(F)F)nn(C)c2Oc2ccccc2)c(F)c1)C(=O)O (centres unmarked) [Example 114, 3-(3,5-Difluoro-4-((1-methyl-5-phenoxy-3-(trifluoromethyl)-1H-pyrazol-4-yl)methoxy)phenyl)-2-methylpropanoic acid]
- % Activity at 5 μM: 111%
- pEC50 (read-out: EC50 ≦ 1 μM): ≥ 6.00

Structure (SMILES): Cc1cc(COc2c(F)cc(CCC(=O)O)cc2F)n(-c2ccc(F)c(F)c2)n1 [Example 53, 3-(4-((1-(3,4-difluorophenyl)-3-methyl-1H-pyrazol-5-yl)methoxy)-3,5-difluorophenyl)propanoic acid]
- % Activity at 5 μM: 84%
- pEC50 (read-out: EC50 ≦ 1 μM): ≥ 6.00

Structure (SMILES): Cc1cc(COc2ccc3c(c2)CCC3CC(=O)O)n(-c2ccc(Cl)cc2)n1 (centres unmarked) [Example 59, 2-(5-((1-(4-chlorophenyl)-3-methyl-1H-pyrazol-5-yl)methoxy)-2,3-dihydro-1H-inden-1-yl)acetic acid]
- % Activity at 5 μM: 100%
- pEC50 (read-out: EC50 ≦ 1 μM): ≥ 6.00

Structure (SMILES): C[C@@H](Oc1cc(F)c(OCc2snnc2-c2ccc(Cl)cc2)c(F)c1)C(=O)O [Example 66, (R)-2-(4-((4-(4-chlorophenyl)-1,2,3-thiadiazol-5-yl)methoxy)-3,5-difluorophenoxy)propanoic acid]
- % Activity at 5 μM: 15%
- pEC50 (read-out: EC50 > 10 μM): < 5.00

Structure (SMILES): Cc1cc(COc2c(F)cc(C3CC3C(=O)O)cc2F)n(-c2ccccc2)n1 (centres unmarked) [Example 64, 2-(3,5-difluoro-4-((3-methyl-1-phenyl-1H-pyrazol-5-yl)methoxy)phenyl)cyclopropane carboxylic acid]
- % Activity at 5 μM: 71%
- pEC50 (read-out: EC50 ≦ 1 μM): ≥ 6.00

Structure (SMILES): O=C(O)C1CC1c1cc(F)c(OCc2snnc2-c2ccccc2)c(F)c1 (centres unmarked) [Example 63, 2-(3,5-difluoro-4-((4-phenyl-1,2,3-thiadiazol-5-yl)methoxy)phenyl)cyclopropane carboxylic acid]
- % Activity at 5 μM: 76%
- pEC50 (read-out: EC50 ≦ 1 μM): ≥ 6.00

Structure (SMILES): Cc1noc(-c2ccccc2)c1COc1c(F)cc(CCC(=O)O)cc1F [Example 15, 3-(3,5-difluoro-4-((3-methyl-5-phenylisoxazol-4-yl)methoxy)phenyl)propanoic acid]
- % Activity at 5 μM: 72%
- pEC50 (read-out: EC50 ≦ 1 μM): ≥ 6.00

Structure (SMILES): Cc1cc(COc2ccc(CCC(C)CC(=O)O)cc2)n(-c2ccc(Cl)cc2)n1 (centres unmarked) [Example 71, 5-(4-((1-(4-chlorophenyl)-3-methyl-1H-pyrazol-5-yl)methoxy)phenyl)-3-methyl pentanoic acid]
- % Activity at 5 μM: 100%
- pEC50 (read-out: EC50 ≦ 1 μM): ≥ 6.00
